Molecules are shown by their SMILES.

As a reminder, the IC50 is the concentration that inhibits the measured activity by half.

In assay [1] the target is T1, N-type calcium channel (NTCC) (Homo sapiens, UniProt Q00975).
T1 construct: host or cells: IMR32 cells differentiated with dibutyryl cAMP and bromodeoxyuridine
Briefly: FLIPR calcium mobilization assay for N-type calcium channel. Conditions: calcium mobilization in vitro assay; differentiated IMR32 cells, 5 μM nitrendipine, 90 mM KCl. Type of assay: cell-based. The procedure: Unless noted otherwise, cell culture reagents were purchased from Mediatech of Herndon, Md. IMR32 cells (American Type Culture Collection, ATCC, Manassas, Va.) were routinely cultured in growth medium consisting of minimum essential medium containing 10% fetal bovine serum (FBS, Hyclone, Logan, Utah), 100 U/mL penicillin, 100 μg/mL streptomycin, 2 mM L-glutamine, 1 mM sodium pyruvate, and 1×MEM non-essential amino acids. 80-90% confluent flasks of cells were differentiated using the following differentiation medium: Growth medium plus 1 mM dibutyryl cyclic AMP (Sigma, St. Louis, Mo.), and 2.5 μM bromodeoxyuridine (Sigma). Cells were differentiated for 8 days by replacing differentiation medium every 2-3 days.
FLIPR Calcium Mobilization Assay for N-type Calcium Channel.
One day prior to performing this assay, differentiated IMR32 cells were treated with 1× CellStripper, and seeded on poly-D-lysine-coated 96-well clear-bottom black plates (Becton Dickinson, Franklin Lakes, N.J.) at 200,000 cells/well. On the day of the assay, the cell plates were washed with IMR32 buffer (127 mM NaCl, 1 mM KCl, 2 mM MgCl2, 700 μM NaH2PO4, 5 mM CaCl2, 5 mM NaHCO3, 8 mM HEPES, 10 mM glucose, pH7.4), then pre-stimulated with KCl and loaded as follows: 0.05 mL of IMR32 buffer, 0.05 mL of each compound tested diluted in IMR32 buffer containing 20 μM nitrendipine (Sigma), and 0.1 mL KCl dissolved in IMR32 buffer, plus Fluo-4 were added (3 μM final concentration, Molecular Probes, Eugene, Oreg.). Final test compound concentrations ranged from about 846 pM to about 17 μM, final nitrendipine concentration was 5 μM, and final KCl concentration was 90 mM. After 1 hour, the cells were washed twice with 0.05 mL of each compound tested in nitrendipine-containing IMR32 buffer (no KCl or Fluo-4), and then replaced with 0.1 mL of each compound tested in nitrendipine-containing IMR32 buffer. Plates were then transferred to a Fluorimetric Imaging Plate Reader (FLIPR^96, Molecular Devices, Inc., Sunnyvale, Calif.) for assay. The FLIPR measured basal Fluo-4 fluorescence for 315 seconds (i.e., 5 minutes and 15 seconds), then added 0.1 mL KCl agonist dissolved in IMR32 buffer and measured fluorescence for another 45 seconds. Final test compound concentrations on the cells after FLIPR read ranged from about 846 pM to about 17 μM, final nitrendipine concentration was 5 μM, and final KCl concentration was 90 mM. Data were collected over the entire time course and analyzed using Excel, Graph Pad Prism (version 3.02, Graph Pad, San Diego, Calif.), or an in-house non-linear regression analysis software.
For orientation: Calcium assays in cells follow changes in intracellular calcium, usually with a dye or a luminescent sensor.

In assay [2] the target is T2, L-type calcium channel (LTCC) (Rattus norvegicus, UniProt P22002).
T2 construct: The 6.5 kb cDNA encoding the L-type calcium channel α1c subunit was cloned by PCR amplification from rat heart cDNA; expressed in transfected cells
T2 sequence (P22002 whole entry): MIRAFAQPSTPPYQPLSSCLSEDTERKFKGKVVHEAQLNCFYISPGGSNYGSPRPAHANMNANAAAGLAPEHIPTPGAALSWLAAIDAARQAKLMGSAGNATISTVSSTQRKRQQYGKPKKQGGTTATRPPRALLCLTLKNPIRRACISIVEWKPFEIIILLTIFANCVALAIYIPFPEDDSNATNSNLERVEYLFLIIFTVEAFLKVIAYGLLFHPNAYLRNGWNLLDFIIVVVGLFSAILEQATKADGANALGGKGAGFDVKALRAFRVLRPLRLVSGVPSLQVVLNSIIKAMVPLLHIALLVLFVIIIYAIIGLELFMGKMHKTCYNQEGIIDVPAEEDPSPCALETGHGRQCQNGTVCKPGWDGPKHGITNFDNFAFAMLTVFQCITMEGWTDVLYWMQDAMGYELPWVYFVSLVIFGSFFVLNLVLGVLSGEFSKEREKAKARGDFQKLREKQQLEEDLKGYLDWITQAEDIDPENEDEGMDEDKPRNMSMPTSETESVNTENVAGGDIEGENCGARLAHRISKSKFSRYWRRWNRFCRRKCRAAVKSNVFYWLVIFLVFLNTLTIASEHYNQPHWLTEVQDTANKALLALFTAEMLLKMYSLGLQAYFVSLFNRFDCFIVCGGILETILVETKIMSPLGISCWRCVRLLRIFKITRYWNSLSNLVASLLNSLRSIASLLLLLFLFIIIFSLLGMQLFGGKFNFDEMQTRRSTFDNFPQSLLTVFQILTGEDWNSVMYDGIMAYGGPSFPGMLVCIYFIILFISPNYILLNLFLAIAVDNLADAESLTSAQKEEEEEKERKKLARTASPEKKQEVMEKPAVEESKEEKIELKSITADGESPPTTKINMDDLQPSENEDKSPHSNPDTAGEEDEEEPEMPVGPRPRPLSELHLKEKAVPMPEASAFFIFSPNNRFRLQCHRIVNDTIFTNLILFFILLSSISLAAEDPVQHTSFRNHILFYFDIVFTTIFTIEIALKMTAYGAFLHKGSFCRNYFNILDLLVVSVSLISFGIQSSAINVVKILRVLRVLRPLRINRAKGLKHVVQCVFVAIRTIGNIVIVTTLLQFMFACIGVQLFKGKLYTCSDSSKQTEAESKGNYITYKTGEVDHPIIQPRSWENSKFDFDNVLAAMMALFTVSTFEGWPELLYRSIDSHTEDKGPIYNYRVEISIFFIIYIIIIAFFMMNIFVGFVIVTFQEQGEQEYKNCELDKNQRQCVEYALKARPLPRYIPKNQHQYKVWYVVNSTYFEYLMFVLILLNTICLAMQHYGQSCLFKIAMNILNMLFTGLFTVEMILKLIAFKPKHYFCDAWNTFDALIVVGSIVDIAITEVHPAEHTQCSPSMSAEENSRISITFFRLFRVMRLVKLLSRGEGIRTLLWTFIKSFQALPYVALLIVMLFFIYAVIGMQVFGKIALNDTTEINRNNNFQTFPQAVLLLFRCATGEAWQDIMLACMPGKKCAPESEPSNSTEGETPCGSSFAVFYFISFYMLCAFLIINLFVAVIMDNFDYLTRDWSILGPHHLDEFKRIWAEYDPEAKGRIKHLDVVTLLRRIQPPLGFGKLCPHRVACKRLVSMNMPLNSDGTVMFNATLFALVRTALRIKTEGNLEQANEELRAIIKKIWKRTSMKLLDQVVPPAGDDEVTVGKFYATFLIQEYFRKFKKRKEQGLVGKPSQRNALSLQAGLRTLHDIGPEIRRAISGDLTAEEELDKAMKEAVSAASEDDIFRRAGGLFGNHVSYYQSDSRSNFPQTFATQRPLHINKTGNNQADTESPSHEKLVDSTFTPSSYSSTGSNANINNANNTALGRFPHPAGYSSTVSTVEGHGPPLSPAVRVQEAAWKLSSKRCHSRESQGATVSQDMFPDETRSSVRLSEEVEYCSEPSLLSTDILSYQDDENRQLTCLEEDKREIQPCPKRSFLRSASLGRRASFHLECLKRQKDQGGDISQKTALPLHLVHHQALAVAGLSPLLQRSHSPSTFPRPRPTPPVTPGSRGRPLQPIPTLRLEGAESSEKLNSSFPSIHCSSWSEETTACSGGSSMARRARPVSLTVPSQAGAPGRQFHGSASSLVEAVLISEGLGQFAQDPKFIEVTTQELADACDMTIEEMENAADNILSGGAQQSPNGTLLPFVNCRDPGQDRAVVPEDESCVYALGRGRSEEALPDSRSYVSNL
T2 sequence (P54290 25-944 partner limits assumed): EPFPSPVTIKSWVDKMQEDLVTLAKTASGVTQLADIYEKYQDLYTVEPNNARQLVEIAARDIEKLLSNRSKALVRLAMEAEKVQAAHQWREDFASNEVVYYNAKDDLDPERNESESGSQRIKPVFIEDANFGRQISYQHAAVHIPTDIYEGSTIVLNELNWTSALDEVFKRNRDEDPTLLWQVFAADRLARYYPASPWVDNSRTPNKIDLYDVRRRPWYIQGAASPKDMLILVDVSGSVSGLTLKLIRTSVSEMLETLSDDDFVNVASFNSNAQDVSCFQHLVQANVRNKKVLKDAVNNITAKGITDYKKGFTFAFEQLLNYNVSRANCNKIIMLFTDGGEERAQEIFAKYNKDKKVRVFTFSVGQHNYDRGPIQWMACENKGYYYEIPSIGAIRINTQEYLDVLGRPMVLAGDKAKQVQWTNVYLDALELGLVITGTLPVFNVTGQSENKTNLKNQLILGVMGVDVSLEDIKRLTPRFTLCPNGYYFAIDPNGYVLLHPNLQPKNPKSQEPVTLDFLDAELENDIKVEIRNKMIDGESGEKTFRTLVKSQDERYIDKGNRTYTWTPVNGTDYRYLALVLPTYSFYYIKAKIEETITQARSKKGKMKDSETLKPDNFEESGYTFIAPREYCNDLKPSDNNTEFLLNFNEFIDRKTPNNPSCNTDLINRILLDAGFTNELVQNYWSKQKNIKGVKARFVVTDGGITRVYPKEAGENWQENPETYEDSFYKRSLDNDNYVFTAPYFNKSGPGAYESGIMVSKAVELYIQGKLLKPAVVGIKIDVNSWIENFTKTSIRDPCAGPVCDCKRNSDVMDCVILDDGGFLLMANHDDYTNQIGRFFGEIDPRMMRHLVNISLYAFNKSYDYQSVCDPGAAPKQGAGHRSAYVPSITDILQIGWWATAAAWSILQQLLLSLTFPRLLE
T2 sequence (P54290 945-1091 partner limits assumed): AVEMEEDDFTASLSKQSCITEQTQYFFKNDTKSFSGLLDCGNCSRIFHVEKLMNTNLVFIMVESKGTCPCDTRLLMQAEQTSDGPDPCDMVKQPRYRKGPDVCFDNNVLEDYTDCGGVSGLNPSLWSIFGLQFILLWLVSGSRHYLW
T2 sequence (P54283 whole entry partner): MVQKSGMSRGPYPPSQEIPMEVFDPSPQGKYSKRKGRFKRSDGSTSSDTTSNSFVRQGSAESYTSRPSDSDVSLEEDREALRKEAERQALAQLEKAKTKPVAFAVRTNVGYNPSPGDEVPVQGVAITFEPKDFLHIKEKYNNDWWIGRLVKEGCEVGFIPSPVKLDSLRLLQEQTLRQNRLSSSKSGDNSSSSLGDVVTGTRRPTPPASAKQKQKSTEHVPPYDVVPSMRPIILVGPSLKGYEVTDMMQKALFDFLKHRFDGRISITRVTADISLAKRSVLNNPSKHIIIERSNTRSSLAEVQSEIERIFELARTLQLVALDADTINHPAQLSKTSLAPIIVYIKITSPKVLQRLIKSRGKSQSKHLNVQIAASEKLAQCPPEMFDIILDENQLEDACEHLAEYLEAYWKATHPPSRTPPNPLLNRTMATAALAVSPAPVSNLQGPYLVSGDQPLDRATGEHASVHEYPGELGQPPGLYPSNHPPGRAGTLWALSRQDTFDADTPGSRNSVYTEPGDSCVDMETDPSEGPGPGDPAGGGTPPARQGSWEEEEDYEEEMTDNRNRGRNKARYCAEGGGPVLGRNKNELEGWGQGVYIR
Nature of the assay: FLIPR calcium mobilization assay for L-type calcium channel. Type of assay: cell-based. The conditions noted are these: calcium mobilization in vitro assay; HEK293 cells stably expressing recombinant rat LTCC subunits (α1c, α2δ, β1), 90 mM KCl. The method, then:
Recombinant human embryonal kidney cells (HEK293, ATCC) stably transfected with either N-type calcium channel (NTCC) subunits (α1b, α2δ, and β3) or L-type calcium channel (LTCC) subunits (α1c, α2δ, and β1) were routinely cultured in growth medium consisting of Dulbecco's Modified Eagles Medium containing 10% FBS, 100 U/mL penicillin, 100 μg/mL streptomycin, 4 mM L-glutamine, 500 μg/mL geneticin (G418), 20 μg/mL Blasticidin S (InVivogen, San Diego, Calif.) and 500 μg/mL zeocin (InVivogen).
FLIPR Calcium Mobilization Assay for L-type Calcium Channel.
One day prior to performing this assay, HEK293 cells stably expressing recombinant rat L-type calcium channel (LTCC) subunits (α1c, α2δ, and β1) were trypsinized, then seeded on poly-D-lysine-coated 96-well clear-bottom black plates (Becton Dickinson, Franklin Lakes, N.J.) at 75,000 cells/well. On the day of the assay, the plates were washed with LTCC wash buffer (127 mM NaCl, 2 mM MgCl2, 700 μM NaH2PO4, 5 mM CaCl2, 5 mM NaHCO3, 8 mM HEPES, 10 mM glucose, pH7.4), then loaded with 0.1 mL of LTCC wash buffer containing Fluo-4 (3 μM final concentration, Molecular Probes, Eugene, Oreg.). After 1 hour, the cells were washed with 0.1 mL LTCC wash buffer and resuspended in 0.05 mL LTCC assay buffer (same composition as LTCC wash buffer). Plates were then transferred to a FLIPR^96 for assay. The FLIPR measured basal Fluo-4 fluorescence for 15 seconds, then added 0.05 mL of each compound tested diluted in LTCC assay buffer at final concentrations ranging from about 846 pM to about 17 μM. Fluo-4 fluorescence was then measured for 5 minutes. 0.1 mL KCl agonist dissolved in LTCC assay buffer was then added to the cells to produce a final concentration of 90 mM KCl, and fluorescence was measured for another 45 seconds. Data were collected over the entire time course and analyzed using Excel, Graph Pad Prism, or an in-house regression analysis software.

For the compound `O=C(CCN1CCC(O)CC1)N1CCC(N(C2CC2)S(=O)(=O)c2cccc(C(F)(F)F)c2)CC1` [Compound 2, N-Cyclopropyl-N-{1-[3-(4-hydroxy-piperidin-1-yl)-propionyl]-piperidin-4-yl}-3-trifluoromethyl-benzenesulfonamide], in assay [1], the half-inhibitory concentration (IC50) was 2.47 µM.
Consider `N[C@@H]1CCC[C@@H]1C(=O)N1CCC(N(C2CC2)S(=O)(=O)c2cccc(C(F)(F)F)c2)CC1` (racemic) [Compound 5, rac-N-[1-((1S,2R)-2-Amino-cyclopentanecarbonyl)-piperidin-4-yl]-N-cyclopropyl-3-trifluoromethyl-benzenesulfonamide], for which the IC50 was over 20 µM in assay [2] and 0.29 µM in assay [1].
`O=C(c1ccccc1NCCO)N1CCC(N(C2CC2)S(=O)(=O)c2cccc(C(F)(F)F)c2)CC1` [Compound 13, N-Cyclopropyl-N-{1-[2-(2-hydroxy-ethylamino)-benzoyl]-piperidin-4-yl}-3-trifluoromethyl-benzenesulfonamide]: the results for the IC50 in assay [2] and in assay [1] were over 20 µM and 0.33 µM, respectively.
In the case of `O=C(c1ccccn1)N1CCC(N(C2CC2)S(=O)(=O)c2cccc(C(F)(F)F)c2)CC1` [Compound 7, N-Cyclopropyl-N-[1-(pyridine-2-carbonyl)-piperidin-4-yl]-3-trifluoromethyl-benzenesulfonamide], in assay [1], the IC50 stood at 5.53 µM.
Consider `CC(C)N(C1CCN(C(=O)CN2Cc3ccccc3C2)CC1)S(=O)(=O)c1cccc(C(F)(F)F)c1` [Compound 25d, N-[1-(2-1,3-Dihydro-isoindol-2-yl-acetyl)-piperidin-4-yl]-N-isopropyl-3-trifluoromethylbenzenesulfonamide], for which the IC50 in assay [1] is 1.14 µM.
Regarding `O=C(c1ccc(=O)[nH]c1)N1CCC(N(C2CC2)S(=O)(=O)c2cccc(C(F)(F)F)c2)CC1` [Compound 6, N-Cyclopropyl-N-[1-(6-oxo-1,6-dihydro-pyridine-3-carbonyl)-piperidin-4-yl]-3-trifluoromethyl-benzenesulfonamide], the IC50 in assay [1] was 8.58 µM.
Same read-out and setting: in the case of `CC(C)N(C1CCN(C(=O)CN2CCCC(O)C2)CC1)S(=O)(=O)c1cccc(C(F)(F)F)c1` (stereo not drawn) [Compound 25b, N-{1-[2-(3-Hydroxy-piperidin-1-yl)-acetyl]-piperidin-4-yl}-N-isopropyl-3-trifluoromethylbenzenesulfonamide] it was 3.35 µM.
For the compound `CC(C)N(C1CCN(C(=O)CN2CCC(F)(F)C2)CC1)S(=O)(=O)c1cccc(C(F)(F)F)c1` [Compound 25f, N-{1-[2-(3,3-Difluoro-pyrrolidin-1-yl)-acetyl]-piperidin-4-yl}-N-isopropyl-3-trifluoromethylbenzenesulfonamide], the IC50 was found to be 7.81 µM in assay [2] and 3.98 µM in assay [1].
Turning to `CC(C)N(C1CCN(C(=O)[C@H]2CCC[C@H]2N)CC1)S(=O)(=O)c1cccc(C(F)(F)F)c1` (racemic) [rac-N-[1-((1S,2R)-2-amino-cyclopentanecarbonyl)-piperidin-4-yl}-N-isopropyl-3-trifluoromethylbenzenesulfonamide], the IC50 in assay [1] was 3.69 µM.
Turning to `CC(C)N(C1CCN(C(=O)CN2CCCC(F)(F)C2)CC1)S(=O)(=O)c1cccc(C(F)(F)F)c1` [Compound 25e, N-{1-[2-(3,3-Difluoro-piperidin-1-yl)-acetyl]-piperidin-4-yl}-N-isopropyl-3-trifluoromethylbenzenesulfonamide], the values for the IC50 in assay [2] and in assay [1] were over 20 µM and 0.88 µM, respectively.
On the same counts, the results for `CC(C)N(C1CCN(C(=O)CNC2CCCCC2)CC1)S(=O)(=O)c1cccc(C(F)(F)F)c1` [Compound 25a, N-[1-(2-Cyclohexylamino-acetyl)-piperidin-4-yl]-N-isopropyl-3-trifluoromethylbenzenesulfonamide] are 10 to 20 µM and 0.19 µM.
On the same counts, the results for `N[C@@H]1CCCC[C@@H]1C(=O)N1CCC(N(C2CC2)S(=O)(=O)c2cccc(C(F)(F)F)c2)CC1` (racemic) [Compound 4, rac-N-[1-((1S,2R)-2-Amino-cyclohexanecarbonyl)-piperidin-4-yl]-N-cyclopropyl-3-trifluoromethyl-benzenesulfonamide] are over 20 µM and 0.57 µM.
With `O=C(c1ccccc1[N+](=O)[O-])N1CCC(N(C2CC2)S(=O)(=O)c2cccc(C(F)(F)F)c2)CC1` [Compound 10, N-Cyclopropyl-N-[1-(2-nitro-benzoyl)-piperidin-4-yl]-3-trifluoromethyl-benzenesulfonamide], the IC50 in assay [2] is 3.06 µM; in assay [1], 0.76 µM.
Take `O=C(c1cccnc1)N1CCC(N(C2CC2)S(=O)(=O)c2cccc(C(F)(F)F)c2)CC1` [Compound 8, N-Cyclopropyl-N-[1-(pyridine-3-carbonyl)-piperidin-4-yl]-3-trifluoromethyl-benzenesulfonamide]: the IC50 in assay [1] is 7.25 µM.
With `Nc1ccccc1C(=O)N1CCC(N(C2CC2)S(=O)(=O)c2cccc(C(F)(F)F)c2)CC1` [Compound 11, N-[1-(2-Amino-benzoyl)-piperidin-4-yl]-N-cyclopropyl-3-trifluoromethyl-benzenesulfonamide], the IC50 in assay [2] was 10 to 20 µM; in assay [1], 0.68 µM.
Regarding `O=C(CCN[C@H]1CC[C@H](O)CC1)N1CCC(N(C2CC2)S(=O)(=O)c2cccc(C(F)(F)F)c2)CC1` [Compound 3, N-Cyclopropyl-N-{1-[3-(4-hydroxy-cyclohexylamino)-propionyl]-piperidin-4-yl}-3-trifluoromethyl-benzenesulfonamide], in assay [1], the IC50 was determined as 3.04 µM.
As to `O=C(CNC1CCCC1)N1CCC(N(C2CC2)S(=O)(=O)c2cccc(C(F)(F)F)c2)CC1` [Compound 25c, N-[1-(2-Cyclopentylamino-acetyl)-piperidin-4-yl]-N-cyclopropyl-3-trifluoromethylbenzenesulfonamide], the IC50 in assay [2] was over 20 µM; in assay [1], 0.28 µM.
For the compound `O=C(c1ccncc1)N1CCC(N(C2CC2)S(=O)(=O)c2cccc(C(F)(F)F)c2)CC1` [Compound 9, N-Cyclopropyl-N-[1-(pyridine-4-carbonyl)-piperidin-4-yl]-3-trifluoromethyl-benzenesulfonamide], the IC50 in assay [1] came out at 8.68 µM.
